{"source": "ChEMBL document CHEMBL1150025", "about": "“Synthesis of and glycosidase inhibition by -l-homofuconojirimycin” (Bioorg Med Chem Lett, 1993)", "molecules": {"B1": {"name": "Plasma alpha-L-fucosidase (Homo sapiens), Q9BTY2 (protein)", "chain": "MRPQELPRLAFPLLLLLLLLLPPPPCPAHSATRFDPTWESLDARQLPAWFDQAKFGIFIHWGVFSVPSFGSEWFWWYWQKEKIPKYVEFMKDNYPPSFKYEDFGPLFTAKFFNANQWADIFQASGAKYIVLTSKHHEGFTLWGSEYSWNWNAIDEGPKRDIVKELEVAIRNRTDLRFGLYYSLFEWFHPLFLEDESSSFHKRQFPVSKTLPELYELVNNYQPEVLWSDGDGGAPDQYWNSTGFLAWLYNESPVRGTVVTNDRWGAGSICKHGGFYTCSDRYNPGHLLPHKWENCMTIDKLSWGYRREAGISDYLTIEELVKQLVETVSCGGNLLMNIGPTLDGTISVVFEERLRQMGSWLKVNGEAIYETHTWRSQNDTVTPDVWYTSKPKEKLVYAIFLKWPTSGQLFLGHPKAILGATEVKLLGHGQPLNWISLEQNGIMVELPQLTIHQMPCKWGWALALTNVI"}}, "key": {"[1]": {"tested_on": "Clostridium perfringens", "assay": "Percent inhibition against neuraminidase from Type X, Clostridium perfringens at 1 mM concentration"}, "[2]": {"tested_on": "Canavalia ensiformis", "assay": "Percent inhibition against alpha-D-mannosidase from jack bean at 1 mM concentration"}, "[3]": {"substrate": "Cc1cc(=O)oc2cc(OC3O[C@H](C)[C@H](O)[C@H](O)[C@H]3O)ccc12", "assay": "The Michaelis-Menten constant against alpha-L-fucosidase from solubilized human neutrophils was determined"}}}
{"molecule": "CC1NC(CO)[C@@H](O)C(O)[C@@H]1O", "note": "(single isomer, unassigned)", "values": [{"measurement": "inhibition", "setting": "[1]", "value": 0, "unit": "%"}, {"measurement": "inhibition", "setting": "[2]", "value": 0, "unit": "%"}]}
{"molecule": "C[C@@H]1NC[C@@H](O)[C@H](O)[C@@H]1O", "values": [{"measurement": "inhibition", "setting": "[1]", "value": 50, "unit": "%"}, {"measurement": "inhibition", "setting": "[2]", "value": 83, "unit": "%"}]}
{"molecule": "B1", "values": [{"measurement": "Km", "setting": "[3]", "value": 250, "unit": "µM"}]}
